Patent US8562949B2, “Radiolabeled dihydrotetrabenazine derivatives and their use as imaging agents” (The Trustees of the University of Pennsylvania, priority 2006, dated 2013)

Legend:
[1] = Biodistribution of [18F]FP-6b in normal mice (Table 4); format: in vivo, ICR mice; conditions: iv
Method: After anesthetizing ICR mice (22-25 g male) with isoflurane, 0.15 mL of a 0.1% bovine serum albumin solution containing [^18F]FP-(+)-6b (10-20 μCi) was injected directly into the tail vein. The mice (n=3 for each time point) were sacrificed by cervical dislocation (under isoflurane anesthesia) at indicated time-points post-injection. The organs of interest were removed and weighed, and the radioactivity was counted with an automatic gamma counter. The percentage dose per organ was calculated by a comparison of the tissue counts to suitably diluted aliquots of the injected material. The total activity of the blood was calculated under the assumption that it was 7% of the total body weight. The % does/g of samples was calculated by comparing the sample counts with the count of the diluted initial dose.

[2] = Human radiation dosimetry estimates from mouse biodistribution; conditions: adult male model
Description: From the organ biodistribution data in Table 4 of Example 7, human radiation dosimetry estimates were calculates. In the mass based extrapolation, the concentration in the animal organs is converted to a concentration in human organs by multiplying the animal concentration by a ratio of the total body weight of the animals and humans (Kirschner, et al., 1975). Then the percent in the human organs is derived using organ masses taken from a standard model of the human body for adult males (Cristy and Eckerman, 1987). Data were fit using the SAAM II software (Foster and Barrett, 1999). Time integrals of activity were calculated and converted to residence times (Loevinger, et al., 1988); organ residence times were entered into the OLIND/EXM software (STabin, et al., 2005) using the adult male model. No excretion of activity was assumed; any activity not accounted for was considered to be uniformly distributed throughout the remainder of the body or removed only by physical decay. […] The estimated effective dose (0.047 rem/mCi) also compares favorably to radiation doses received with other approved radiopharmaceuticals.

With `COc1cc2c(cc1OCCC[18F])CCN1C[C@@H](CC(C)C)[C@H](O)C[C@H]21` [[^18F]-(+)-6b] the “Organ distribution Blood” value ([1]; 2 min) was 2.12 ± 0.17 % dose/g, the “Organ distribution Bone” value ([1]; 2 min) was 1.95 ± 0.30 % dose/g and the “Organ distribution Brain” value ([1]; 2 min) was 4.82 ± 0.86 % dose/g. The “Organ distribution Heart” value ([1]; 2 min) was 5.47 ± 1.19 % dose/g, the “Organ distribution Kidney” value ([1]; 2 min) was 10.7 ± 2.02 % dose/g and the “Organ distribution Liver” value ([1]; 2 min) was 24.6 ± 1.37 % dose/g. For the same compound, the “Organ distribution Lung” value ([1]; 2 min) was 9.04 ± 4.71 % dose/g, the “Organ distribution Muscle” value ([1]; 2 min) was 0.78 ± 0.11 % dose/g and the “Organ distribution Skin” value ([1]; 2 min) was 1.05 ± 0.12 % dose/g. The “Organ distribution Spleen” value ([1]; 2 min) was 7.38 ± 1.62 % dose/g, the “Ratio (vs CB) Cortex” value ([1]; 2 min) was 0.97 and the “Ratio (vs CB) Hippocampus” value ([1]; 2 min) was 0.97. The “Ratio (vs CB) Hypothalamus” value ([1]; 2 min) was 1.37, the “Ratio (vs CB) Remainder” value ([1]; 2 min) was 1.01 and the “Ratio (vs CB) Striatum” value ([1]; 2 min) was 1.56. For the same compound, the “Regional brain distribution Cerebellum (CB)” value ([1]; 2 min) was 4.67 ± 0.74 % dose/g, the “Regional brain distribution Cortex” value ([1]; 2 min) was 4.54 ± 0.66 % dose/g and the “Regional brain distribution Hippocampus” value ([1]; 2 min) was 4.54 ± 0.72 % dose/g. For the same compound, the “Regional brain distribution Hypothalamus” value ([1]; 2 min) was 6.41 ± 1.11 % dose/g, the “Regional brain distribution Remainder” value ([1]; 2 min) was 4.71 ± 0.74 % dose/g and the “Regional brain distribution Striatum” value ([1]; 2 min) was 7.28 ± 0.80 % dose/g. For the same compound, the “Organ distribution Blood” value ([1]; 30 min) was 1.73 ± 0.15 % dose/g, the “Organ distribution Bone” value ([1]; 30 min) was 4.88 ± 1.43 % dose/g and the “Organ distribution Brain” value ([1]; 30 min) was 2.05 ± 0.37 % dose/g. The “Organ distribution Heart” value ([1]; 30 min) was 2.43 ± 0.22 % dose/g, the “Organ distribution Kidney” value ([1]; 30 min) was 5.81 ± 1.15 % dose/g and the “Organ distribution Liver” value ([1]; 30 min) was 22.2 ± 1.98 % dose/g. The “Organ distribution Lung” value ([1]; 30 min) was 3.17 ± 0.33 % dose/g, the “Organ distribution Muscle” value ([1]; 30 min) was 1.10 ± 0.12 % dose/g and the “Organ distribution Skin” value ([1]; 30 min) was 1.42 ± 0.03 % dose/g. For the same compound, the “Organ distribution Spleen” value ([1]; 30 min) was 3.69 ± 0.25 % dose/g, the “Ratio (vs CB) Cortex” value ([1]; 30 min) was 1.34 and the “Ratio (vs CB) Hippocampus” value ([1]; 30 min) was 1.59. The “Ratio (vs CB) Hypothalamus” value ([1]; 30 min) was 3.52, the “Ratio (vs CB) Remainder” value ([1]; 30 min) was 1.45 and the “Ratio (vs CB) Striatum” value ([1]; 30 min) was 4.51. For the same compound, the “Regional brain distribution Cerebellum (CB)” value ([1]; 30 min) was 1.41 ± 0.23 % dose/g, the “Regional brain distribution Cortex” value ([1]; 30 min) was 1.88 ± 0.63 % dose/g and the “Regional brain distribution Hippocampus” value ([1]; 30 min) was 2.23 ± 0.59 % dose/g. For the same compound, the “Regional brain distribution Hypothalamus” value ([1]; 30 min) was 4.95 ± 0.84 % dose/g, the “Regional brain distribution Remainder” value ([1]; 30 min) was 2.04 ± 0.28 % dose/g and the “Regional brain distribution Striatum” value ([1]; 30 min) was 6.34 ± 1.01 % dose/g. The “Organ distribution Blood” value ([1]; 60 min) was 0.97 ± 0.04 % dose/g, the “Organ distribution Bone” value ([1]; 60 min) was 9.22 ± 0.48 % dose/g and the “Organ distribution Brain” value ([1]; 60 min) was 1.10 ± 0.32 % dose/g. For the same compound, the “Organ distribution Heart” value ([1]; 60 min) was 1.67 ± 0.02 % dose/g, the “Organ distribution Kidney” value ([1]; 60 min) was 3.48 ± 0.34 % dose/g and the “Organ distribution Liver” value ([1]; 60 min) was 14.5 ± 0.91 % dose/g. The “Organ distribution Lung” value ([1]; 60 min) was 2.00 ± 0.05 % dose/g, the “Organ distribution Muscle” value ([1]; 60 min) was 0.73 ± 0.04 % dose/g and the “Organ distribution Skin” value ([1]; 60 min) was 1.06 ± 0.04 % dose/g. The “Organ distribution Spleen” value ([1]; 60 min) was 2.11 ± 0.05 % dose/g, the “Ratio (vs CB) Cortex” value ([1]; 60 min) was 1.00 and the “Ratio (vs CB) Hippocampus” value ([1]; 60 min) was 1.32. For the same compound, the “Ratio (vs CB) Hypothalamus” value ([1]; 60 min) was 2.71, the “Ratio (vs CB) Remainder” value ([1]; 60 min) was 1.45 and the “Ratio (vs CB) Striatum” value ([1]; 60 min) was 4.74. For the same compound, the “Regional brain distribution Cerebellum (CB)” value ([1]; 60 min) was 0.89 ± 0.01 % dose/g, the “Regional brain distribution Cortex” value ([1]; 60 min) was 0.89 ± 0.11 % dose/g and the “Regional brain distribution Hippocampus” value ([1]; 60 min) was 1.18 ± 0.12 % dose/g. The “Regional brain distribution Hypothalamus” value ([1]; 60 min) was 2.42 ± 0.52 % dose/g, the “Regional brain distribution Remainder” value ([1]; 60 min) was 1.30 ± 0.08 % dose/g and the “Regional brain distribution Striatum” value ([1]; 60 min) was 4.24 ± 0.78 % dose/g. For the same compound, the “Organ distribution Blood” value ([1]; 2 hr) was 0.57 ± 0.09 % dose/g, the “Organ distribution Bone” value ([1]; 2 hr) was 12.7 ± 1.84 % dose/g and the “Organ distribution Brain” value ([1]; 2 hr) was 0.68 ± 0.11 % dose/g. For the same compound, the “Organ distribution Heart” value ([1]; 2 hr) was 0.91 ± 0.14 % dose/g, the “Organ distribution Kidney” value ([1]; 2 hr) was 2.28 ± 0.34 % dose/g and the “Organ distribution Liver” value ([1]; 2 hr) was 9.81 ± 0.94 % dose/g. For the same compound, the “Organ distribution Lung” value ([1]; 2 hr) was 1.26 ± 0.13 % dose/g, the “Organ distribution Muscle” value ([1]; 2 hr) was 0.53 ± 0.05 % dose/g and the “Organ distribution Skin” value ([1]; 2 hr) was 0.67 ± 0.06 % dose/g. For the same compound, the “Organ distribution Spleen” value ([1]; 2 hr) was 1.40 ± 0.35 % dose/g, the “Ratio (vs CB) Cortex” value ([1]; 2 hr) was 0.96 and the “Ratio (vs CB) Hippocampus” value ([1]; 2 hr) was 1.09. For the same compound, the “Ratio (vs CB) Hypothalamus” value ([1]; 2 hr) was 1.90, the “Ratio (vs CB) Remainder” value ([1]; 2 hr) was 1.15 and the “Ratio (vs CB) Striatum” value ([1]; 2 hr) was 3.28. The “Regional brain distribution Cerebellum (CB)” value ([1]; 2 hr) was 0.54 ± 0.09 % dose/g, the “Regional brain distribution Cortex” value ([1]; 2 hr) was 0.51 ± 0.02 % dose/g and the “Regional brain distribution Hippocampus” value ([1]; 2 hr) was 0.58 ± 0.15 % dose/g. The “Regional brain distribution Hypothalamus” value ([1]; 2 hr) was 1.02 ± 0.11 % dose/g, the “Regional brain distribution Remainder” value ([1]; 2 hr) was 0.62 ± 0.10 % dose/g and the “Regional brain distribution Striatum” value ([1]; 2 hr) was 1.76 ± 0.33 % dose/g. The “Organ distribution Blood” value ([1]; 4 hr) was 0.06 ± 0.02 % dose/g, the “Organ distribution Bone” value ([1]; 4 hr) was 3.49 ± 0.35 % dose/g and the “Organ distribution Brain” value ([1]; 4 hr) was 0.16 ± 0.03 % dose/g. The “Organ distribution Heart” value ([1]; 4 hr) was 0.12 ± 0.01 % dose/g, the “Organ distribution Kidney” value ([1]; 4 hr) was 0.31 ± 0.02 % dose/g and the “Organ distribution Liver” value ([1]; 4 hr) was 1.58 ± 0.08 % dose/g. The “Organ distribution Lung” value ([1]; 4 hr) was 0.19 ± 0.01 % dose/g, the “Organ distribution Muscle” value ([1]; 4 hr) was 0.06 ± 0.01 % dose/g and the “Organ distribution Skin” value ([1]; 4 hr) was 0.09 ± 0.01 % dose/g. The “Organ distribution Spleen” value ([1]; 4 hr) was 0.17 ± 0.02 % dose/g, the “Ratio (vs CB) Cortex” value ([1]; 4 hr) was 0.87 and the “Ratio (vs CB) Hippocampus” value ([1]; 4 hr) was 0.99. The “Ratio (vs CB) Hypothalamus” value ([1]; 4 hr) was 1.15, the “Ratio (vs CB) Remainder” value ([1]; 4 hr) was 1.02 and the “Ratio (vs CB) Striatum” value ([1]; 4 hr) was 1.11. For the same compound, the “Regional brain distribution Cerebellum (CB)” value ([1]; 4 hr) was 0.41 ± 0.02 % dose/g, the “Regional brain distribution Cortex” value ([1]; 4 hr) was 0.36 ± 0.02 % dose/g and the “Regional brain distribution Hippocampus” value ([1]; 4 hr) was 0.41 ± 0.01 % dose/g. For the same compound, the “Regional brain distribution Hypothalamus” value ([1]; 4 hr) was 0.47 ± 0.01 % dose/g, the “Regional brain distribution Remainder” value ([1]; 4 hr) was 0.42 ± 0.05 % dose/g and the “Regional brain distribution Striatum” value ([1]; 4 hr) was 0.46 ± 0.13 % dose/g. For the same compound, the “human radiation dose, liver and bone surface” value [2] was “around 0.11 rem/mCi” and the “human radiation dose, most organs” value [2] was 0.04-0.06 rem/mCi.
